How the values were obtained:
[1] = tested on: choline uptake in rat brain synaptomes; test: choline uptake in rat brain synaptosomes (Example 2); format: biochemical; conditions: mean ± SE, n = 4
Source text: Example 2 is a comparison of several batches of Rb1 extract, an extract of total ginsenosides (TS) containing 25% Rb1, 19.4% Rc1 and 21.6% Rg1+Re, and HT1001 on choline uptake in rat brain synaptomes. The Rb1 tested had greater than 98% purity. Rb1-52, Rb1-53 and Rb1-54 represent three different batches of Rb1.

[2] = tested on: PC12 cells; test: neurite outgrowth in PC12 cells; format: cell-based; conditions: seven days after treatment
Procedure: A study of the neurotrophic effects of HT1001 and some pure ginsenosides was conducted. A new mechanism of action for HT1001 was shown, which is the stimulation of neurite outgrowth in a PC12 cell line. […] The beneficial effects (prevention/treatment) of HT-1001 may apply to degenerative diseases such as senile dementia, Parkinson's disease, Alzheimer's disease, multi-infarct dementia, etc. Alzheimer's disease (AD) is associated with degeneration of cholinergic nerve tracts including projections from the basal forebrain to the cortex and hippocampus. The PC12 (pheochromocytoma) cell line is one of the models for the study of the development of these nerve tracts. The cell line is phenotypically a chromaffin cell line, but can be induced to express adrenergic and cholinergic markers as well. This model has the advantages that (1) it is an immortalized cell line, (2) it is sensitive to, but not dependent upon, NGF for survival, and (3) it shares many properties in common with the central cholinergic neurons of the basal forebrain. It has been noted that PC12 cells are not sensitive to all of the trophic factors that central cholinergic neurons respond to, whereas central cholinergic neurons respond to all trophic factors that PC12 cells respond to. […] The cellular responses to Nerve Growth Factor (NGF) and samples were determined by counting the number of cells containing processes in PC12 cells. […] The cells and neurites were counted as follows: The cells with circular or global shape and no neurite outgrowth were scored as 0 (S0). […] Cells with more than two small neurites on the cell bodies were scored as S2. Cells with one or two neurites with a length of at least two times diameter as their body were scored as S3. Cells with more than two long neurites were scored as S4. The neurite index was calculated as below: Neurite index (In)=total neurite Score (ΣS)/total cell number (.[…] is the cell number of every cell field. The test samples included: […]

[3] = target: T1, monoamine oxidase-B (Rattus norvegicus, UniProt P19643); test: in vitro monoamine oxidase-B inhibiting activity (radiochemical, β-phenylethylamine substrate); format: biochemical; conditions: read-out: inhibition of monoamine oxidase B activity
T1 construct: homogenates of rat brain; from tissue; host or cells: rat brain homogenate
T1 sequence (P19643 1-520): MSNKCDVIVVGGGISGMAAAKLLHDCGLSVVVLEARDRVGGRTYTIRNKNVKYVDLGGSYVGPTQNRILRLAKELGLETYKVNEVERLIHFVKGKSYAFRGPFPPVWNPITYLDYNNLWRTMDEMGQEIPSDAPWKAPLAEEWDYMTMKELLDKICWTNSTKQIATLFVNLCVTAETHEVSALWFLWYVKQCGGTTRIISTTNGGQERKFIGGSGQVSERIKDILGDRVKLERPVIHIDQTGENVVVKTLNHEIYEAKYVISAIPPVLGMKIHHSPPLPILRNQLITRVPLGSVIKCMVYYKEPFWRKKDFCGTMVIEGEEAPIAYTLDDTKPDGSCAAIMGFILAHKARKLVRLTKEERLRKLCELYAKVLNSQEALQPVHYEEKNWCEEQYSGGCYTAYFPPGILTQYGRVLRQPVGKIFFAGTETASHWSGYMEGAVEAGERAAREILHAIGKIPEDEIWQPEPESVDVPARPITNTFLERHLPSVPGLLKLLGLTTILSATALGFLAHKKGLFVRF
Procedure: (§1) Example 1 is a study of the effects of several extracts of HT1001, PQ4, PQ5, PQ6 and pure ginsenosides, on monoamine oxidase A (MAO A) and monoamine oxidase B (MAO B) activity in vitro.
(§2) HT-1001, related extracts and pure ginsenosides were evaluated for in vitro monoamine oxidase-A and monoamine oxidase-B inhibiting activity using the radiochemical procedure of Lyles and Callingham, Biochem. Pharmacol. 31: 1417-1424 (1982), employing either radiolabelled 5-hydroxytryptamine or β-phenylethylamine as substrates for monoamine oxidase-A (MAO-A) or monoamine oxidase-B (MAO-B) respectively. Various concentrations of the compounds of interest were incubated in appropriately diluted homogenates of rat brain in a 0.2 M potassium phosphate buffer. After a 15 minute preincubation period the reaction was initiated by the addition of substrate. Incubations proceded at 37° C. for 10 minutes. Incubation was terminated by the addition of acid and the radiolabelled products (5-hydroxyindoleacetic acid, 5-hydroxyindoleacetaldehyde or phenylacetic acid, phenylacetaldehyde) were extracted and quantified by liquid scintillation counting procedures. Incubations were done in triplicate and incubations including pheneizine a known MAO inhibitor were included as controls and for comparison. The percent inhibition of monoamine oxidase-A or monoamine oxidase-B activity compared to controls containing no experimental material was calculated.

[4] = target: T2, monoamine oxidase-A (Rattus norvegicus, UniProt P21396); test: in vitro monoamine oxidase-A inhibiting activity (radiochemical, 5-hydroxytryptamine substrate); format: biochemical; conditions: read-out: inhibition of monoamine oxidase A activity
T2 construct: homogenates of rat brain; from tissue; host or cells: rat brain homogenate
T2 sequence (P21396 1-526): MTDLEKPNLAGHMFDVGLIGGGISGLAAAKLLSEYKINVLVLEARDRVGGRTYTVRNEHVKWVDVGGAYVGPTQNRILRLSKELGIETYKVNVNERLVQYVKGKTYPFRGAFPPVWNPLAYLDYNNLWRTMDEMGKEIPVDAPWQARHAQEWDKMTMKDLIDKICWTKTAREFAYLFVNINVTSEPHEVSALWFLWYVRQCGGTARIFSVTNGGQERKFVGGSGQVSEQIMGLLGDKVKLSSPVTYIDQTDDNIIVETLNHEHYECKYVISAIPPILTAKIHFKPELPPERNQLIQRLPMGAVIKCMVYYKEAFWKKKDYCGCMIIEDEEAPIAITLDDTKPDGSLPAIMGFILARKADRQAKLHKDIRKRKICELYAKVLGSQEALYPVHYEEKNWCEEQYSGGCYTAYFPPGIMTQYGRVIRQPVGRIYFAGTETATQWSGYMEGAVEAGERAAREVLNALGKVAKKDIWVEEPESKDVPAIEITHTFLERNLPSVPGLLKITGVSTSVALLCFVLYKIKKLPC
Procedure: as §1, §2

[5] = tested on: choline uptake into synaptosomes, whole brain; test: choline uptake into synaptosomes from rat whole brain; format: biochemical; conditions: various doses; n=10
Source text: We also studied the effects of HT1001 on choline uptake in synaptosomes.
We have examined choline uptake in synaptosome preparations from whole brain and hippocampus in the presence of Rb1, HT1001 and HC3.
The magnitude of these effects are consistent with the previous studies.

[6] = tested on: choline uptake into synaptosomes, whole brain; conditions: Benishin 1992 / previously demonstrated; cited from earlier work
[7] = tested on: rats; test: Morris water maze, learning and memory, scopolamine induced amnesia; format: in vivo, rat; conditions: for mean latency: scopolamine 2 mg/kg, all scopolamine treated animals; for memory effect of scopolamine treatment: 2 mg/kg
Source text: First, we studied the effects of HT1001 on Learning and Memory. […] As HT1001 is a mixture of ginsenosides, it may not have the same properties as pure Rb1. […] Rats are required to learn the location of a hidden platform in a swimming pool. […] The effects of HT1001 on memory can also be examined in scopolamine induced amnesia. If HT1001 enhances memory it should protect against memory loss in scopolamine treated animals.
The Morris water maze task was based on methods previously described (Pitsikas et al, Pharmacol. Biochem. Behav. 47: 95-99 (1994); Smith et al, Psychopharmacol. 114: 651-656 (1994)). The apparatatus consisted of a circular pool (1.7 m diameter, 35 cm deep) which contained water (30° C.) made cloudy by the presence of powdered milk. A moveable platform (10 cm×11.5 cm and 20 cm tall) was placed in the pool such that it was submerged by 3 cm and could not be seen. Each trial involved placing the rat in the pool in one of the four equally spaced quadrants in which the pool was divided. Visual cues consisting of large posters were placed on the walls of the room in which the experiment was conducted, and the experimenters maintained established positions throughout each experiment. During the learning period, animals were allowed to swim freely until they found the escape platform. […] During the initial learning period, all rats were tested sequentially and were given 4 trials per day during which the escape platform was located in a fixed position in the center of the pool. During the scopolamine trials rats were tested sequentially three times on cach day with the three trials being performed between 30 and 45 minutes following scopolamine or saline injection, The latency to reach the platform was recorded.
Experimental Design for Learning and Memory Testing
The specific aim of the experiment was to test if HT1001 affected the acquisition, retention and/or recall of a new task in the presence of scopolamine-induced amnesia. Rats were initially divided into two groups and fed either water (0.5 ml) or HT1001 (200 mg/kg/day in 0.5 ml water by gavage) for the duration of the experiment. Eight days after the initiation of water or HT1001 administration, rats were given the task of learning the position of a platform concealed at the center of the Morris water maze. The rats were placed in the pool 4 times per day for 5 days and the time required to find the platform was recorded (maximum duration 300 seconds). Latency became shorter as the rats learned the task. On day 14, the two groups of rats were further subdivided into four groups. […] In each instance the time to locate the platform (latency) was recorded. […]

Row | Molecule | choline uptake ([1]; 0.0011 mg/l) | choline uptake ([1]; 0.011 mg/l) | choline uptake ([1]; 0.11 mg/l) | choline uptake ([1]; 1.1 mg/l) | choline uptake ([1]; 11 mg/l) | further results
1 | CC(C)=CCC[C@](C)(O[C@@H]1O[C@H](CO[C@@H]2O[C@H](CO)[C@@H](O)[C@H](O)[C@H]2O)[C@@H](O)[C@H](O)[C@H]1O)[C@H]1CC[C@]2(C)[C@@H]1[C@H](O)C[C@@H]1[C@@]3(C)CC[C@H](O[C@@H]4O[C@H](CO)[C@@H](O)[C@H](O)[C@H]4O[C@@H]4O[C@H](CO)[C@@H](O)[C@H](O)[C@H]4O)C(C)(C)[C@@H]3CC[C@]12C [Rb1-54, ginsenoside Rb1] | 108 ± 3 % of control | 110 ± 3.4 % of control | 110 ± 2.6 % of control | 112 ± 1.2 % of control | 111 ± 2.6 % of control | 
2 | Nerve Growth Factor [NGF] |  |  |  |  |  | neurite outgrowth (FIG. 29) [2]: increased neurite outgrowth in PC12 cells in a dose-dependent manner
3 | CC(C)=CCC[C@](C)(O[C@@H]1O[C@H](CO[C@@H]2O[C@H](CO)[C@@H](O)[C@H](O)[C@H]2O)[C@@H](O)[C@H](O)[C@H]1O)[C@H]1CC[C@]2(C)[C@@H]1[C@H](O)C[C@@H]1[C@@]3(C)CC[C@H](O[C@@H]4O[C@H](CO)[C@@H](O)[C@H](O)[C@H]4O[C@@H]4O[C@H](CO)[C@@H](O)[C@H](O)[C@H]4O)C(C)(C)[C@@H]3CC[C@]12C [Rb1-53, ginsenoside Rb1] | 106 ± 1.3 % of control | 109 ± 3.6 % of control | 109 ± 3.8 % of control | 112 ± 4.8 % of control | 114 ± 2.5 % of control | 
4 | CC(C)=CCC[C@](C)(O[C@@H]1O[C@H](CO[C@@H]2O[C@H](CO)[C@@H](O)[C@H](O)[C@H]2O)[C@@H](O)[C@H](O)[C@H]1O)[C@H]1CC[C@]2(C)[C@@H]1[C@H](O)C[C@@H]1[C@@]3(C)CC[C@H](O[C@@H]4O[C@H](CO)[C@@H](O)[C@H](O)[C@H]4O[C@@H]4O[C@H](CO)[C@@H](O)[C@H](O)[C@H]4O)C(C)(C)[C@@H]3CC[C@]12C [Rb1-52, ginsenoside Rb1] | 108 ± 5.7 % of control | 108 ± 4.4 % of control | 108 ± 5.8 % of control | 109 ± 5.4 % of control | 111 ± 3.7 % of control | 
5 | NNCCc1ccccc1 [phenylzine] |  |  |  |  |  | inhibition at 100 µM [3]: 93%; inhibition at 100 µM [4]: 97.5%
6 | C[N+]1(C)CCOC(O)(c2ccc(-c3ccc(C4(O)C[N+](C)(C)CCO4)cc3)cc2)C1 (stereo not drawn) [HC3] |  |  |  |  |  | choline uptake by rat brain synaptosomes (FIG. 28, in words) [5]: inhibits choline uptake; choline uptake (literature) [6]: inhibit choline uptake
7 | CN1[C@@H]2C[C@@H](OC(=O)[C@H](CO)c3ccccc3)C[C@H]1[C@@H]1O[C@@H]12 [scopolamine] |  |  |  |  |  | mean latency ([7]; day 14, third trial): 39.5 ± 8.2 s; memory effect of scopolamine treatment ([7]; day 15): produces a memory deficit; mean latency ([7]; day 16, third trial): 18.4 ± 2.9 s; memory effect of scopolamine treatment ([7]; day 17): produces a memory deficit

Reference: patent US6083932A, “Pharmaceutical compositions derived from ginseng and methods of treatment using same” (CV Technologies Inc., priority 1998, dated 2000)
